Test results: ChEMBL document CHEMBL1152560, “Substituted 2-arylbenzothiazoles as kinase inhibitors: hit-to-lead optimization” (Bioorg Med Chem, 2009)

Tests used:
[1] = target: T1, NUAK family SNF1-like kinase 1 (Homo sapiens) (UniProt O60285); test: Residual activity of ARK5 at 10 uM by microplate scintillation counting
T1 sequence (whole entry): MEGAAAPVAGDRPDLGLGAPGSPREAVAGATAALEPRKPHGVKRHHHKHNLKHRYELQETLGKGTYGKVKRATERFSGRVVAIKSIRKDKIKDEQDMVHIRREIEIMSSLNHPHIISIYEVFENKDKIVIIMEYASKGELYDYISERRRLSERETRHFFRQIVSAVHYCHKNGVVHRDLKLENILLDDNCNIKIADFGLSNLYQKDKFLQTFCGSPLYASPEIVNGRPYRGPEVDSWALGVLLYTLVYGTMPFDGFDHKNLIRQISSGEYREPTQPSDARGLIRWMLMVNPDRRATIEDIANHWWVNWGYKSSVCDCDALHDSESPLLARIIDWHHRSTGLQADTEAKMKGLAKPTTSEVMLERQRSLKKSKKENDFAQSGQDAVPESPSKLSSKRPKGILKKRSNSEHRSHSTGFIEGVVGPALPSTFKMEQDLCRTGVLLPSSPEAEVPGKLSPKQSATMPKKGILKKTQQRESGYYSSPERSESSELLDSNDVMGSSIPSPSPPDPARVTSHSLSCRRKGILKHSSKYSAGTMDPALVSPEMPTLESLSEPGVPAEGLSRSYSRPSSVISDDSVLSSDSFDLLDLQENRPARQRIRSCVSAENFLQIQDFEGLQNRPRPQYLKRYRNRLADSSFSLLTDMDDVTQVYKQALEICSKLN

[2] = target: T2, NUAK family SNF1-like kinase 2 (Homo sapiens) (UniProt Q9H093); test: Residual activity of SNARK at 0.1 uM by microplate scintillation counting
T2 sequence (whole entry): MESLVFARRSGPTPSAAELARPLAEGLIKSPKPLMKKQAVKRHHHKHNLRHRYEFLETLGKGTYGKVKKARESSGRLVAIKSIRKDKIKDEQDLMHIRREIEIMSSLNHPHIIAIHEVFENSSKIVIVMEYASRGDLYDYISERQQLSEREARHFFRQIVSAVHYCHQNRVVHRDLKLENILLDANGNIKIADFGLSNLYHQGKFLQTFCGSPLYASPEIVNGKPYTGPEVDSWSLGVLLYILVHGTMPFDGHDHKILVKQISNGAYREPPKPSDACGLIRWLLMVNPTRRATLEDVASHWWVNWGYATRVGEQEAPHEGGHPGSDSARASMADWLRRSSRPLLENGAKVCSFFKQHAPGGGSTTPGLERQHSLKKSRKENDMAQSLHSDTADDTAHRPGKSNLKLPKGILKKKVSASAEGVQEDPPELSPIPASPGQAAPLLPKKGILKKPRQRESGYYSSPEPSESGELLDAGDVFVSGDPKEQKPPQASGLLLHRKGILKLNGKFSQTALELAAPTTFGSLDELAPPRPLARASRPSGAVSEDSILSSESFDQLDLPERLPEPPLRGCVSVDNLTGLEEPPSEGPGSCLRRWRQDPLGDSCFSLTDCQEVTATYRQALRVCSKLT

[3] = system: T3, Receptor-type tyrosine-protein kinase FLT3 (Homo sapiens), P36888 [D835Y]; test: Residual activity of FLT3 D835Y mutant at 0.1 uM by microplate scintillation counting
T3 sequence (whole entry): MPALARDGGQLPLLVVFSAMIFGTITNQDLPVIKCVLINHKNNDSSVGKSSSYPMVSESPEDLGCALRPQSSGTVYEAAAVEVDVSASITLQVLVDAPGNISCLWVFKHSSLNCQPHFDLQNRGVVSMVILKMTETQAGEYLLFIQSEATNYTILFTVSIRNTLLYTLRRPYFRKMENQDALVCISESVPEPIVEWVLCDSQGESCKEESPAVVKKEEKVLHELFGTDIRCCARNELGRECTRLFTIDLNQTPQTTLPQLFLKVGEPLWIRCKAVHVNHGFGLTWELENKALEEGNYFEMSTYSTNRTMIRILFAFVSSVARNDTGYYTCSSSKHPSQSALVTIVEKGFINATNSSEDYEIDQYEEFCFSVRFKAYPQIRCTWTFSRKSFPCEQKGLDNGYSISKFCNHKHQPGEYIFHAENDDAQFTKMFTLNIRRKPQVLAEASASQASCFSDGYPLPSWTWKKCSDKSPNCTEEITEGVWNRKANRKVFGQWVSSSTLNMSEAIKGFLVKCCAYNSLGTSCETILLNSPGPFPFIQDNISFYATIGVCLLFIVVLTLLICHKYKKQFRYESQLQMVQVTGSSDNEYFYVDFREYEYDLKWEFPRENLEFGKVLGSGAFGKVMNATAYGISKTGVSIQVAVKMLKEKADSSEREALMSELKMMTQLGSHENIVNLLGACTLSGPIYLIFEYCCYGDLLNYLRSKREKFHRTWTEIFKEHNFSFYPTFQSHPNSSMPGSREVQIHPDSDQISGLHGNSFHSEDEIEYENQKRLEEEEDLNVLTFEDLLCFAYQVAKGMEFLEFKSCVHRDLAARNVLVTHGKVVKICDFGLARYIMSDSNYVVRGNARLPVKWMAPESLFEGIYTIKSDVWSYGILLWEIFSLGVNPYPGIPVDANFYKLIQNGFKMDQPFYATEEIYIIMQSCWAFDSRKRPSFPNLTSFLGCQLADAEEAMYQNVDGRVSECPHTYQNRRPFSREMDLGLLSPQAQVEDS

[4] = target: Tyrosine-protein kinase Fes/Fps (Homo sapiens) (UniProt P07332); test: Residual activity of FES at 10 uM by microplate scintillation counting
Chain of Tyrosine-protein kinase Fes/Fps (Homo sapiens) (P07332 whole entry): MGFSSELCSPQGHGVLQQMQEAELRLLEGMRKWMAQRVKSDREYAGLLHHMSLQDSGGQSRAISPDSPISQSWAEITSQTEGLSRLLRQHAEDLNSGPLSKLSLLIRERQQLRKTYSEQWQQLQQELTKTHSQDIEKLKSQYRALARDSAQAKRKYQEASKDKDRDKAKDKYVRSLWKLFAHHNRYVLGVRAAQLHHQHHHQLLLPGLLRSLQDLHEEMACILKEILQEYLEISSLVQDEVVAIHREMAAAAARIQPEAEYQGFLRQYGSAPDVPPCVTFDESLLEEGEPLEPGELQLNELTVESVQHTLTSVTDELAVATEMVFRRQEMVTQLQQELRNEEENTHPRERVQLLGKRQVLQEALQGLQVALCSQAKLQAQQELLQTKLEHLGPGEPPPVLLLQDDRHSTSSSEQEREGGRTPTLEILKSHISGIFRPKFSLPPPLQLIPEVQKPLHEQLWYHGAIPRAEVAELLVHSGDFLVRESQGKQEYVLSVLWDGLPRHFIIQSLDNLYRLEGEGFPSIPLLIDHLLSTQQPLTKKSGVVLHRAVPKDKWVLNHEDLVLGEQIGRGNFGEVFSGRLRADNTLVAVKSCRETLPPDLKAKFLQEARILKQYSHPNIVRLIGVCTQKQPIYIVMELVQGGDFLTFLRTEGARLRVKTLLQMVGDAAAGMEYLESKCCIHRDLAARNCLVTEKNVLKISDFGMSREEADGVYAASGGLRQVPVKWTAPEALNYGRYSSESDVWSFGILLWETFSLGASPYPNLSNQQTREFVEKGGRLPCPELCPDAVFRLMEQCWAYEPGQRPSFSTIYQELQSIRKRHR

Row | residual activity [1] [%] | residual activity [2] [%] | residual activity [3] [%] | residual activity [4] [%] | Compound
1 | 127 | 96 | 86 | 153 | COc1cc2c(Oc3ccc(-c4nc5ccccc5s4)cc3)ncnc2cc1OCCCN1CCN(C)CC1
2 | 109 | 84 | 83 | 208 | COc1cc2c(Oc3ccc(-c4nc5ccccc5s4)cc3)ncnc2cc1OCCCN1CCCC1
3 | 139 | 88 | 79 | 112 | COc1cc2c(Oc3ccc(-c4nc5ccccc5s4)cc3F)ncnc2cc1OCCCN1CCN(C)CC1
